According to publication PMC6792352, “Limited Chemical Structural Diversity Found to Modulate Thyroid Hormone Receptor in the Tox21 Chemical Library” (Environmental Health Perspectives, 2019):
Counter-ions that a name gives are not always drawn.

Assay: in vitro
Conditions: rat, gh3-tre-luc cells

SMILES | CC50 at 24 h (AC50 (uM) modified / 1000) | also measured
O=C1CC[C@@]2(O)[C@H]3Cc4ccc(O)c5c4[C@@]2(CCN3CC2CC2)[C@H]1O5 [Naltrexone] | > 50 µM | 
CCCCCCCCCC(=O)O[C@H]1CC[C@H]2[C@@H]3CCC4=CC(=O)CC[C@@H]4[C@H]3CC[C@]12C [Nandrolone decanoate] | > 50 µM | 
C[C@]12CC[C@H]3[C@@H](CCC4=CC(=O)CC[C@@H]43)[C@@H]1CC[C@@H]2OC(=O)CCc1ccccc1 [Nandrolone phenpropionate] | > 50 µM | 
C[C@]12CC[C@H]3[C@@H](CCC4=CC(=O)CC[C@@H]43)[C@@H]1CC[C@@H]2O [Nandrolone] | > 90 µM | 
c1ccc2c(CC3=NCCN3)cccc2c1 [Naphazoline hydrochloride] | > 50 µM | 
Nc1ccccc1C(=O)Oc1ccc2ccccc2c1 [Naphthalen-2-yl 2-aminobenzoate] |  | CC50 at 24 h (AC50 (uM) modified / 1000, Tox21_110001=Tox21_302560, viability, 1 nM T3 present, 24 h): > 90 µM
c1ccc2ccccc2c1 [Naphthalene] | > 90 µM | 
CCN(CC)C(=O)C(C)Oc1cccc2ccccc12 (stereo not shown) [Napropamide] | > 90 µM | 
COc1ccc2cc([C@H](C)CO)ccc2c1 [Naproxol] | > 50 µM | 
O=C(O)c1ccccc1C(=O)Nc1cccc2ccccc12 [Naptalam] |  | CC50 at 24 h (AC50 (uM) modified / 1000, Tox21_110001=Tox21_302279, viability, 1 nM T3 present, 24 h): > 90 µM
CC[C@@H](C(=O)O)[C@@H]1O[C@@H]([C@@H](C)[C@H](O)[C@H](C)C(=O)[C@H](CC)[C@H]2O[C@]3(C=C[C@@H](O)[C@]4(CC[C@@](C)([C@H]5CC[C@](O)(CC)[C@H](C)O5)O4)O3)[C@H](C)C[C@@H]2C)[C@@H](C)C[C@@H]1C [Narasin] | 0.153 µM | 
CNS(=O)(=O)CCc1ccc2[nH]cc(C3CCN(C)CC3)c2c1 [Naratriptan hydrochloride] | > 50 µM | 
C[C@@H]1C/C=C/C=C/C=C/C=C/[C@H](O[C@@H]2O[C@H](C)[C@@H](O)[C@H](N)[C@@H]2O)C[C@@H]2O[C@](O)(C[C@@H](O)C[C@H]3O[C@@H]3/C=C/C(=O)O1)C[C@H](O)[C@H]2C(=O)O [Natamycin] | > 50 µM | 
CC(C)[C@H]1CC[C@H](C(=O)N[C@H](Cc2ccccc2)C(=O)O)CC1 [Nateglinide] | > 50 µM | 
CC1(C)CCC(NC(=O)[C@@H](N)CCC(=O)O)CC1 [Neboglamine] | > 50 µM | 
CCCc1c2oc(C(=O)O)cc(=O)c2cc2c(=O)cc(C(=O)O)n(CC)c12 [Nedocromil] | > 50 µM | 
Cc1cccc(C)c1NC(=O)CN1CCCC1=O [Nefiracetam] | > 50 µM | 
CN1CCOC(c2ccccc2)c2ccccc2C1 (stereo not shown) [Nefopam hydrochloride] | > 20 µM | 
COc1nc(N)nc2c1ncn2[C@@H]1O[C@H](CO)[C@@H](O)[C@@H]1O [Nelarabine] | > 50 µM | 
COc1ccc(S(=O)(=O)N2C(=O)[C@@](c3ccccc3OC)(N3C[C@H](O)C[C@H]3C(=O)N(C)C)c3cc(Cl)ccc32)c(OC)c1 [Nelivaptan] | 34.9 µM | 
CCOC(=O)c1cc(-c2ccccc2)nc2ccc(C)cc12 [Neocinchophen] | 44.6 µM | 
CC(C)(C)CCCCCC(=O)O [Neodecanoic acid] | > 90 µM | 
COc1ccc(CCC(=O)c2c(O)cc(O[C@@H]3O[C@H](CO)[C@@H](O)[C@H](O)[C@H]3O[C@@H]3O[C@@H](C)[C@H](O)[C@@H](O)[C@H]3O)cc2O)cc1O [Neohesperidin dihydrochalcone] | > 90 µM | 
NC[C@@H]1O[C@H](O[C@H]2[C@@H](O)[C@H](O[C@@H]3[C@@H](O)[C@H](N)C[C@H](N)[C@H]3O[C@H]3O[C@H](CN)[C@@H](O)[C@H](O)[C@H]3N)O[C@@H]2CO)[C@H](N)[C@@H](O)[C@@H]1O [Neomycin sulfate] | > 50 µM | 
CC(C)(COC(=O)c1ccccc1)COC(=O)c1ccccc1 [Neopentyl glycol dibenzoate] | > 90 µM | 
CC(C)(CCl)c1ccccc1 [Neophyl chloride] | > 90 µM | 
CN(C)C(=O)Oc1cccc([N+](C)(C)C)c1 [Neostigmine bromide] | > 50 µM | 

SMILES | CC50 at 24 h (AC50 (uM) modified / 1000) | also measured
NC(=O)Cc1cccc(C(=O)c2ccccc2)c1N [Nepafenac] | > 50 µM | 
CCCCc1cc2c(=O)c(C(=O)OC)c[nH]c2cc1OCc1ccccc1 [Nequinate] | > 50 µM | 
C=CC(C)(O)CC/C=C(\C)CCC=C(C)C (stereo not shown) [Nerolidol] | > 90 µM | 
CCN[C@@H]1C[C@H](N)[C@@H](O[C@H]2OC(CN)=CC[C@H]2N)[C@H](O)[C@H]1O[C@H]1OC[C@](C)(O)[C@H](NC)[C@H]1O [Netilmicin sulfate] | > 50 µM | 
Cc1ccnc2c1NC(=O)c1cccnc1N2C1CC1 [Nevirapine] | > 90 µM | 
NC(=O)c1cccnc1 [Niacinamide] | > 90 µM | 
O=C(CCNNC(=O)c1ccncc1)NCc1ccccc1 [Nialamide] | > 50 µM | 
CCN(CC)CCOC(=O)c1cccnc1 [Nicametate citrate] | > 50 µM | 
CC(CNC(=O)c1cccnc1)NC(=O)c1cccnc1 (stereo not shown) [Nicaraven] | > 50 µM | 
CO[C@]12C[C@@H](COC(=O)c3cncc(Br)c3)CN(C)[C@@H]1Cc1cn(C)c3cccc2c13 [Nicergoline] | 16.4 µM | 
O=C(OCC(COC(=O)c1cccnc1)(COC(=O)c1cccnc1)COC(=O)c1cccnc1)c1cccnc1 [Niceritrol] | > 50 µM | 
O=C(OC[C@H]1O[C@](O)(COC(=O)c2cccnc2)[C@@H](OC(=O)c2cccnc2)[C@@H]1OC(=O)c1cccnc1)c1cccnc1 [Nicofuranose] | > 50 µM | 
O=C(OCC1(COC(=O)c2cccnc2)CCCC(COC(=O)c2cccnc2)(COC(=O)c2cccnc2)C1O)c1cccnc1 [Nicomolol] | > 50 µM | 
O=C(NCCO[N+](=O)[O-])c1cccnc1 [Nicorandil] | > 50 µM | 
COc1cc(OC)nc(NC(=O)NS(=O)(=O)c2ncccc2C(=O)N(C)C)n1 [Nicosulfuron] | > 90 µM | 
NC(=S)N/N=C/c1cccnc1 [Nicothiazone] | > 50 µM | 
CN1CCC[C@H]1c1cccnc1 [Nicotine] | > 90 µM | 
O=C(O)c1ccc[n+]([O-])c1 [Nicotinic acid 1-oxide] | > 50 µM | 
NNC(=O)c1cccnc1 [Nicotinic acid hydrazide] |  | CC50 at 24 h (AC50 (uM) modified / 1000, Tox21_110001=Tox21_200666, viability, 1 nM T3 present, 24 h): > 90 µM
O=C(O)c1cccnc1 [Nicotinic acid] | > 50 µM | 
OCc1cccnc1 [Nicotinyl alcohol] | > 50 µM | 
O=C(NCCc1c[nH]c2ccccc12)c1cccnc1 [Nicotredole] | > 50 µM | 
Cn1c(NCCN(CCO)CCCc2ccc([N+](=O)[O-])cc2)cc(=O)n(C)c1=O [Nifekalant hydrochloride] | > 50 µM | 
CC(C)NCC(O)c1ccc([N+](=O)[O-])cc1 (stereo not shown) [Nifenalol] | > 50 µM | 
Cc1c(NC(=O)c2cccnc2)c(=O)n(-c2ccccc2)n1C [Nifenazone] | > 20 µM | 
NC(=O)C(=O)N/N=C/c1ccc([N+](=O)[O-])o1 [Nifuraldezone] | 24.8 µM | 
O=C(N/N=C/c1ccc([N+](=O)[O-])o1)c1ccc(O)cc1 [Nifuroxazide] | > 20 µM | 

SMILES | CC50 at 24 h (AC50 (uM) modified / 1000) | also measured
O=[N+]([O-])c1ccc(/C=N\O)o1 [Nifuroxime] | > 50 µM | 
O=C(N/N=C/c1ccc([N+](=O)[O-])o1)c1cc([N+](=O)[O-])cc([N+](=O)[O-])c1O [Nifursol] | 32.5 µM | 
CC1CS(=O)(=O)CCN1/N=C/c1ccc([N+](=O)[O-])o1 (stereo not shown) [Nifurtimox] | 8.46 µM | 
CC(=O)N/N=C/c1ccc([N+](=O)[O-])o1 [Nihydrazone] | 17.4 µM | 
CC1(C)NC(=O)N(c2ccc([N+](=O)[O-])c(C(F)(F)F)c2)C1=O [Nilutamide] | > 90 µM | 
COC(=O)C1=C(C#N)NC(C)=C(C(=O)OC(C)C)C1c1cccc([N+](=O)[O-])c1 (stereo not shown) [Nilvadipine] | 27.9 µM | 
CN1C(=O)CN=C(c2ccccc2)c2cc([N+](=O)[O-])ccc21 [Nimetazepam] | > 50 µM | 
COCCOC(=O)C1=C(C)NC(C)=C(C(=O)OC(C)C)C1c1cccc([N+](=O)[O-])c1 (stereo not shown) [Nimodipine] | > 50 µM | 
Cc1ncc(CNC(=O)N(CCCl)N=O)c(N)n1 [Nimustine] | > 50 µM | 
O=C1c2ccccc2C(=O)C1(O)O [Ninhydrin] | > 90 µM | 
O=C1NCCN1c1ncc([N+](=O)[O-])s1 [Niridazole] | > 20 µM | 
CNCCC(Oc1ccccc1OC)c1ccccc1 (stereo not shown) [Nisoxetine] | 38.3 µM | 
CC(=O)Nc1ncc([N+](=O)[O-])s1 [Nithiamide] | > 50 µM | 
CCCN(CCC)c1c([N+](=O)[O-])cc(S(C)(=O)=O)cc1[N+](=O)[O-] [Nitralin] |  | CC50 at 24 h (AC50 (uM) modified / 1000, Tox21_110001=Tox21_301901, viability, 1 nM T3 present, 24 h): > 90 µM
Clc1cccc(C(Cl)(Cl)Cl)n1 [Nitrapyrin] | > 90 µM | 
O=C1CN=C(c2ccccc2)c2cc([N+](=O)[O-])ccc2N1 [Nitrazepam] | > 50 µM | 
Cc1nc([N+](=O)[O-])cn1-c1ccc([N+](=O)[O-])cc1 [Nitrefazole] | > 50 µM | 
CCOC(=O)C1=C(C)NC(C)=C(C(=O)OC)C1c1cccc([N+](=O)[O-])c1 (stereo not shown) [Nitrendipine] | > 50 µM | 
O=C(O)CN(CC(=O)O)CC(=O)O [Nitrilotriacetic acid] | > 90 µM | 
O=[N+]([O-])c1ccccc1 [Nitrobenzene] | > 90 µM | 
CC[N+](=O)[O-] [Nitroethane] |  | CC50 at 24 h (AC50 (uM) modified / 1000, Tox21_110001=Tox21_202217, viability, 1 nM T3 present, 24 h): > 90 µM
O=[N+]([O-])c1ccc(Oc2ccc(Cl)cc2Cl)cc1 [Nitrofen] |  | CC50 at 24 h (AC50 (uM) modified / 1000, Tox21_110001=Tox21_202438, viability, 1 nM T3 present, 24 h): > 90 µM
NC(=O)N/N=C/c1ccc([N+](=O)[O-])o1 [Nitrofurazone] | > 90 µM | 
C[N+](=O)[O-] [Nitromethane] |  | CC50 at 24 h (AC50 (uM) modified / 1000, Tox21_110001=Tox21_200822, viability, 1 nM T3 present, 24 h): > 90 µM
O=NN1CCCCCCC1 [Nitrosoheptamethyleneimine] | > 90 µM | 
